# Patent US6472349B1, “Pyridine-2,3-dicarboxylic acid diamides” (BASF Aktiengesellschaft, priority 1999, dated 2002)
# Key:
# IPOSS = test: Herbicidal activity post-emergence in greenhouse, morning glory; type: in vivo; details: 100 = complete destruction, 0 = no damage
# Excerpt: (§1) The herbicidal action of the pyridine-2,3-dicarboxamides of the formula I was examined in greenhouse experiments: […]
# (§2) The growing containers used were plastic pots containing loamy sand with approximately 3.0% of humus as the substrate. The seeds of the test plants were sown separately for each species.
# (§3) For the post-emergence treatment, the test plants were first grown to a plant height of 3 to 15 cm, depending on the growth habit, and then treated with the active ingredients which had been suspended or emulsified in water. The test plants were either sown directly and grown in the same containers or first grown separately as seedlings and transplanted into the test containers a few days prior to treatment. The rate of application for the post-emergence treatment was 0.5; 0.0625; 0.0313 or 0.0156 kg/ha of a.s.
# (§4) Depending on the species, the plants were kept at 10-25° C. or 20-35° C. The test period extended over 2 to 4 weeks. During this time, the plants were tended, and their response to the individual treatments was evaluated.
# (§5) Evaluation was carried out using a scale from 0 to 100. 100 means no emergence of the plants or complete destruction of at least the above-ground parts, and 0 means no damage or normal course of growth.
# (§6) The plants used in the greenhouse experiments belonged to the following species: […]
# ALOMY = test: Herbicidal activity post-emergence in greenhouse, blackgrass; type: in vivo; details: 100 = complete destruction, 0 = no damage
# Excerpt: as §1, §2, §3, §4, §5, §6
# AMARE = test: Herbicidal activity post-emergence in greenhouse, redroot pigweed; type: in vivo; details: 100 = complete destruction, 0 = no damage
# Excerpt: as §1, §2, §3, §4, §5, §6
# SOLNI = test: Herbicidal activity post-emergence in greenhouse, black nightshade; type: in vivo; details: 100 = complete destruction, 0 = no damage
# Excerpt: as §1, §2, §3, §4, §5, §6
# VIOAR = test: Herbicidal activity post-emergence in greenhouse, violet; type: in vivo; details: application rate 0.5 kg of a.s./ha, 100 = complete destruction, 0 = no damage
# Excerpt: as §1, §2, §3, §4, §5, §6
# GALAP = test: Herbicidal activity post-emergence in greenhouse, catchweed bedstraw; type: in vivo; details: application rate 0.5 kg of a.s./ha, 100 = complete destruction, 0 = no damage
# Excerpt: as §1, §2, §3, §4, §5, §6
# ECGCG = test: Herbicidal activity post-emergence in greenhouse, barnyard grass; type: in vivo; details: application rate 0.5 kg of a.s./ha, 100 = complete destruction, 0 = no damage
# Excerpt: as §1, §2, §3, §4, §5, §6
# [1] = application rate 0.0313 kg of a.s./ha
# [2] = application rate 0.0625 kg of a.s./ha
SMILES,melting point [°C],"Herbicidal activity (scale 0 to 100), IPOSS (IPOSS; [1])","Herbicidal activity (scale 0 to 100), IPOSS (IPOSS; [2])","Herbicidal activity (scale 0 to 100), ALOMY (ALOMY; [1])","Herbicidal activity (scale 0 to 100), ALOMY (ALOMY; [2])","Herbicidal activity (scale 0 to 100), AMARE (AMARE; [1])","Herbicidal activity (scale 0 to 100), AMARE (AMARE; [2])",other results
CCCNC(=O)c1nc(C)ccc1C(=O)Nc1cccc2ccccc12 [drawing 67],–,98,100,75,85,98,100,–
"CCCNC(=O)c1nc(C)ccc1C(=O)Nc1cccc2ccccc12 [Example 1, N-n-Propyl-3-(1-naphthyl)aminocarbonyl-6-methylpyridine-2-carboxamide]",175 to 178,–,–,–,–,–,–,–
CCCNC(=O)c1nc(OC)c(Cl)cc1C(=O)Nc1cccc(Cl)c1C,–,98,100,75,85,98,100,"Herbicidal activity (scale 0 to 100), SOLNI (SOLNI; [1]): 100; Herbicidal activity (scale 0 to 100), SOLNI (SOLNI; [2]): 100"
CCCNC(=O)c1nc(Cl)c(C)cc1C(=O)Nc1cccc(Cl)c1C,–,–,–,–,–,–,–,"Herbicidal activity (scale 0 to 100), IPOSS (IPOSS; application rate 0.5 kg of a.s./ha): 100; Herbicidal activity (scale 0 to 100), VIOAR (VIOAR): 100; Herbicidal activity (scale 0 to 100), GALAP (GALAP): 100; Herbicidal activity (scale 0 to 100), ECHCG (ECGCG): 100"

# Further lines, with some results ahead:
melting point [°C],SMILES,"Herbicidal activity (scale 0 to 100), IPOSS (IPOSS; [1])","Herbicidal activity (scale 0 to 100), IPOSS (IPOSS; [2])","Herbicidal activity (scale 0 to 100), ALOMY (ALOMY; [1])","Herbicidal activity (scale 0 to 100), ALOMY (ALOMY; [2])","Herbicidal activity (scale 0 to 100), AMARE (AMARE; [1])","Herbicidal activity (scale 0 to 100), AMARE (AMARE; [2])",other results
180 to 181,"Cc1ccc2c(n1)C(=O)N(c1cccc(S(C)(=O)=O)c1C)C2=O [Example 3, N-(2-Methyl-3-methylsulfonylphenyl)-6-methylpyridine-2,3-dicarboximide]",–,–,–,–,–,–,–
151 to 152,"CCCNC(=O)c1nc(C)ccc1C(=O)Nc1cccc(SC)c1C [Example 2, N-n-Propyl-3-(2-methyl-3-methylthiophenyl)aminocarbonyl-6-methylpyridine-2-carboxamide]",–,–,–,–,–,–,–
